Reference: PubChem BioAssay AID250 (DTP/NCI, 2004)
“And” between values parts separate entries of the source, which are not always exact repeats. Equal entries are not always repeated. Toxic doses and inconclusive results are not listed.

Tested on: BDF1 mice, L1210 leukemia sc, survival T/C
Assay: NCI In Vivo Anticancer Drug Screen. Data for tumor model L1210 Leukemia (subcutaneous) in B6D2F1 (BDF1) mice
Details: higher = longer survival
Outline: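 Antitumor activity is assessed in mice with transplanted tumors by comparing the treated group (T) with the vehicle control group (C).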

O=C1CN(CCN2CC(=O)NC(=O)C2)CC(=O)N1
T/C (endpoint: median survival time, dose: 8.4 mg/kg/injection, schedule: Q03HX024 (sc), vehicle: Klucel (hydroxypropylcellulose) (HPC)): 160 % of control
T/C (endpoint: median survival time, dose: 12.5 mg/kg/injection, schedule: Q01DX009 (ip), vehicle: steriod suspending solution): 115 % of control
T/C (endpoint: median survival time, dose: 12.5 mg/kg/injection, schedule: Q01DX009 (sc), vehicle: steriod suspending solution): 110 % of control
T/C (endpoint: median survival time, dose: 23.0 mg/kg/injection, schedule: Q03HX024 (sc), vehicle: Klucel (hydroxypropylcellulose) (HPC)): 165 % of control
T/C (endpoint: median survival time, dose: 25.0 mg/kg/injection, schedule: Q01DX009 (ip), vehicle: steriod suspending solution): 120 % of control
T/C (endpoint: median survival time, dose: 25.0 mg/kg/injection, schedule: Q01DX009 (sc), vehicle: steriod suspending solution): 100 % of control
T/C (endpoint: median survival time, dose: 39.0 mg/kg/injection, schedule: Q03HX024 (sc), vehicle: Klucel (hydroxypropylcellulose) (HPC)): 120 % of control
T/C (endpoint: median survival time, dose: 65.0 mg/kg/injection, schedule: Q03HX024 (sc), vehicle: Klucel (hydroxypropylcellulose) (HPC)): 120 % of control
T/C (endpoint: median survival time, dose: 100.0 mg/kg/injection, schedule: Q01DX009 (ip), vehicle: steriod suspending solution): 165 % of control
T/C (endpoint: median survival time, dose: 100.0 mg/kg/injection, schedule: Q01DX009 (sc), vehicle: steriod suspending solution): 105 % of control and 120 % of control
T/C (endpoint: median survival time, dose: 100.0 mg/kg/injection, schedule: Q04DX003 (ip), vehicle: steriod suspending solution): 105 % of control
T/C (endpoint: median survival time, dose: 100.0 mg/kg/injection, schedule: Q04DX003 (sc), vehicle: steriod suspending solution): 100 % of control and 110 % of control
T/C (endpoint: median survival time, dose: 200.0 mg/kg/injection, schedule: Q01DX009 (ip), vehicle: steriod suspending solution): 100 % of control
T/C (endpoint: median survival time, dose: 200.0 mg/kg/injection, schedule: Q01DX009 (sc), vehicle: steriod suspending solution): 90 % of control
T/C (endpoint: median survival time, dose: 200.0 mg/kg/injection, schedule: Q04DX003 (ip), vehicle: steriod suspending solution): 100 % of control
T/C (endpoint: median survival time, dose: 200.0 mg/kg/injection, schedule: Q04DX003 (sc), vehicle: steriod suspending solution): 105 % of control and 115 % of control
T/C (endpoint: median survival time, dose: 300.0 mg/kg/injection, schedule: Q01DX009 (sc), vehicle: Klucel (hydroxypropylcellulose) (HPC)): 120 % of control
T/C (endpoint: median survival time, dose: 400.0 mg/kg/injection, schedule: Q04DX003 (sc), vehicle: steriod suspending solution): 100 % of control
T/C (endpoint: median survival time, dose: 500.0 mg/kg/injection, schedule: Q01DX009 (sc), vehicle: Klucel (hydroxypropylcellulose) (HPC)): 120 % of control
T/C (endpoint: median survival time, dose: 800.0 mg/kg/injection, schedule: Q04DX003 (sc), vehicle: steriod suspending solution): 100 % of control and 120 % of control

Nc1nncs1
T/C (endpoint: median survival time, dose: 50.0 mg/kg/injection, schedule: Q04DX004 (sc), vehicle: water): 111 % of control
T/C (endpoint: median survival time, dose: 100.0 mg/kg/injection, schedule: Q04DX004 (sc), vehicle: water): 101 % of control
T/C (endpoint: median survival time, dose: 200.0 mg/kg/injection, schedule: Q04DX004 (sc), vehicle: water): 106 % of control
T/C (endpoint: median survival time, dose: 200.0 mg/kg/injection, schedule: Q08DX003 (sc), vehicle: water): 101 % of control
T/C (endpoint: median survival time, dose: 400.0 mg/kg/injection, schedule: Q04DX004 (sc), vehicle: water): 111 % of control
T/C (endpoint: median survival time, dose: 400.0 mg/kg/injection, schedule: Q08DX003 (sc), vehicle: water): 108 % of control
T/C (endpoint: median survival time, dose: 800.0 mg/kg/injection, schedule: Q08DX003 (sc), vehicle: water): 109 % of control
T/C (endpoint: median survival time, dose: 1600.0 mg/kg/injection, schedule: Q08DX003 (sc), vehicle: water): 117 % of control

CS(=O)(=O)Nc1ccc(Nc2c3ccccc3nc3cc([N+](=O)[O-])ccc23)cc1
T/C (endpoint: mean survival time, dose: 1.25 mg/kg/injection, schedule: Q01DX009 (ip), vehicle: Klucel (hydroxypropylcellulose) (HPC)): 108 % of control
T/C (endpoint: mean survival time, dose: 1.25 mg/kg/injection, schedule: Q01DX009 (sc), vehicle: Klucel (hydroxypropylcellulose) (HPC)): 121 % of control
T/C (endpoint: mean survival time, dose: 2.5 mg/kg/injection, schedule: Q01DX009 (ip), vehicle: Klucel (hydroxypropylcellulose) (HPC)): 107 % of control
T/C (endpoint: mean survival time, dose: 2.5 mg/kg/injection, schedule: Q01DX009 (sc), vehicle: Klucel (hydroxypropylcellulose) (HPC)): 108 % of control
T/C (endpoint: mean survival time, dose: 5.0 mg/kg/injection, schedule: Q01DX009 (ip), vehicle: Klucel (hydroxypropylcellulose) (HPC)): 106 % of control
T/C (endpoint: mean survival time, dose: 5.0 mg/kg/injection, schedule: Q01DX009 (sc), vehicle: Klucel (hydroxypropylcellulose) (HPC)): 112 % of control

CCN(CC)CCCC(C)Nc1c2ccc(Cl)cc2nc2ccc(OC)cc12 (stereo not drawn)
T/C (endpoint: median survival time, dose: 23.0 mg/kg/injection, schedule: Q01DX Z (sc), vehicle: water): 90 % of control
T/C (endpoint: median survival time, dose: 39.0 mg/kg/injection, schedule: Q01DX Z (sc), vehicle: water): 100 % of control
T/C (endpoint: median survival time, dose: 65.0 mg/kg/injection, schedule: Q01DX Z (sc), vehicle: water): 100 % of control
T/C (endpoint: median survival time, dose: 108.0 mg/kg/injection, schedule: Q01DX Z (sc), vehicle: water): 95 % of control
T/C (endpoint: median survival time, dose: 180.0 mg/kg/injection, schedule: Q01DX Z (sc), vehicle: water): 100 % of control
T/C (endpoint: median survival time, dose: 300.0 mg/kg/injection, schedule: Q01DX Z (sc), vehicle: water): 100 % of control

c1ccc2[nH]cnc2c1
T/C (endpoint: median survival time, dose: 14.0 mg/kg/injection, schedule: Q01DX Z (sc), vehicle: other): 100 % of control
T/C (endpoint: median survival time, dose: 300.0 mg/kg/injection, schedule: Q01DX Z (sc), vehicle: other): 100 % of control
T/C (endpoint: median survival time, dose: 500.0 mg/kg/injection, schedule: Q01DX Z (sc), vehicle: other): 100 % of control

Nc1nc(N)c2cc(CNc3ccc(C(=O)NC(CC(=O)O)C(=O)O)cc3)ccc2n1 (stereo not drawn)
T/C (endpoint: median survival time, dose: 0.78 mg/kg/injection, schedule: Q01DX Z (sc), vehicle: saline): 216 % of control
T/C (endpoint: median survival time, dose: 1.56 mg/kg/injection, schedule: Q01DX Z (sc), vehicle: saline): 200 % of control
T/C (endpoint: median survival time, dose: 3.12 mg/kg/injection, schedule: Q01DX Z (sc), vehicle: saline): 150 % of control
T/C (endpoint: median survival time, dose: 6.25 mg/kg/injection, schedule: Q01DX Z (sc), vehicle: saline): 122 % of control
T/C (endpoint: median survival time, dose: 6.3 mg/kg/injection, schedule: Q01DX001 (sc), vehicle: saline): 122 % of control
T/C (endpoint: median survival time, dose: 12.5 mg/kg/injection, schedule: Q01DX001 (sc), vehicle: saline): 116 % of control
T/C (endpoint: median survival time, dose: 12.5 mg/kg/injection, schedule: Q01DX Z (sc), vehicle: saline): 111 % of control
T/C (endpoint: median survival time, dose: 25.0 mg/kg/injection, schedule: Q01DX Z (sc), vehicle: saline): 100 % of control
T/C (endpoint: median survival time, dose: 50.0 mg/kg/injection, schedule: Q01DX001 (sc), vehicle: saline): 166 % of control

Nc1nc(SCc2ccccc2)c2[nH]cnc2n1
T/C (endpoint: median survival time, dose: 180.0 mg/kg/injection, schedule: Q01DX Z (sc), vehicle: methylcellulose (MC)): 122 % of control
T/C (endpoint: median survival time, dose: 300.0 mg/kg/injection, schedule: Q01DX Z (sc), vehicle: methylcellulose (MC)): 122 % of control
T/C (endpoint: median survival time, dose: 500.0 mg/kg/injection, schedule: Q01DX Z (sc), vehicle: methylcellulose (MC)): 111 % of control

C1CN1c1nc(N2CC2)nc(N2CC2)n1
T/C (endpoint: median survival time, dose: 0.23 mg/kg/injection, schedule: Q01DX Z (sc), vehicle: saline): 100 % of control
T/C (endpoint: median survival time, dose: 0.39 mg/kg/injection, schedule: Q01DX Z (sc), vehicle: saline): 104 % of control and 105 % of control
T/C (endpoint: median survival time, dose: 0.65 mg/kg/injection, schedule: Q01DX Z (sc), vehicle: saline): 112 % of control and 115 % of control
T/C (endpoint: median survival time, dose: 1.08 mg/kg/injection, schedule: Q01DX Z (sc), vehicle: saline): 160 % of control
T/C (endpoint: median survival time, dose: 3.0 mg/kg/injection, schedule: Q01DX Z (sc), vehicle: saline): 108 % of control
T/C (endpoint: median survival time, dose: 5.0 mg/kg/injection, schedule: Q01DX Z (sc), vehicle: saline): 104 % of control and 120 % of control

O=C(Nc1ccc(NC2=NCCN2)cc1)c1ccc(C(=O)Nc2ccc(NC3=NCCN3)cc2)cc1
T/C (endpoint: median survival time, dose: 1.08 mg/kg/injection, schedule: Q01DX Z (sc), vehicle: water): 110 % of control
T/C (endpoint: median survival time, dose: 1.8 mg/kg/injection, schedule: Q01DX Z (sc), vehicle: water): 110 % of control
T/C (endpoint: median survival time, dose: 5.0 mg/kg/injection, schedule: Q01DX Z (sc), vehicle: water): 260 % of control
T/C (endpoint: median survival time, dose: 8.4 mg/kg/injection, schedule: Q01DX Z (sc), vehicle: water): 175 % of control
T/C (endpoint: median survival time, dose: 14.0 mg/kg/injection, schedule: Q01DX Z (sc), vehicle: water): 150 % of control

COCCCN=C(N)c1ccc(NC(=O)c2ccc(C(=O)Nc3ccc(C(N)=NCCCOC)cc3)cc2)cc1
T/C (endpoint: median survival time, dose: 8.4 mg/kg/injection, schedule: Q01DX Z (sc), vehicle: saline): 158 % of control
T/C (endpoint: median survival time, dose: 39.0 mg/kg/injection, schedule: Q01DX Z (sc), vehicle: saline): 100 % of control

Cc1cccc(C)c1NC(=O)N(CCCl)N=O
T/C (endpoint: median survival time, dose: 8.4 mg/kg/injection, schedule: Q01DX Z (sc), vehicle: carboxymethylcellulose (CMC)): 106 % of control
T/C (endpoint: median survival time, dose: 23.0 mg/kg/injection, schedule: Q01DX Z (sc), vehicle: carboxymethylcellulose (CMC)): 181 % of control
T/C (endpoint: median survival time, dose: 39.0 mg/kg/injection, schedule: Q01DX Z (sc), vehicle: carboxymethylcellulose (CMC)): 287 % of control
T/C (endpoint: median survival time, dose: 65.0 mg/kg/injection, schedule: Q01DX Z (sc), vehicle: carboxymethylcellulose (CMC)): 337 % of control
T/C (endpoint: median survival time, dose: 108.0 mg/kg/injection, schedule: Q01DX Z (sc), vehicle: carboxymethylcellulose (CMC)): 162 % of control
